Results as given in PubChem BioAssay AID1918956 (Molecular Pharmacology Branch, DTP, NCI, 2023).
pIC50: −log10 of the molar value.

Tested on: OVCAR-5 complex spheroids, viability
Experiment: Anticancer human tumor OVCAR-5 cell line growth inhibition;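 further: spheroids exposed to agents for seven days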;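 on viability, T/C: 100% = DMSO vehicle control wells viability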
Conditions: for pIC50: curve of first compound; for viability, T/C: stronger effect = lower value
In short: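 Drug combinations with the LSD1 inhibitor iadademstat tested on tumor cells co-cultured as spheroids with endothelial cells and mesenchymal stem cells. Concentrations descended in half-log increments from clinical Cmax or 10 microM.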

[1] = second compound 0.1 µM, first compound 0.000949 µM
[2] = second compound 0.1 µM, first compound 0.003 µM
[3] = second compound 0.1 µM, first compound 0.00949 µM
[4] = second compound 0.1 µM, first compound 0.03 µM
[5] = second compound 0.1 µM, first compound 0.0949 µM
[6] = second compound 0.1 µM, first compound 0.3 µM
[7] = second compound 0.316 µM, first compound 0.000949 µM
[8] = second compound 0.316 µM, first compound 0.003 µM
[9] = second compound 0.316 µM, first compound 0.00949 µM
[10] = second compound 0.316 µM, first compound 0.03 µM
[11] = second compound 0.316 µM, first compound 0.0949 µM
[12] = second compound 0.316 µM, first compound 0.3 µM
[13] = second compound 1 µM, first compound 0.000949 µM
[14] = second compound 1 µM, first compound 0.003 µM
[15] = second compound 1 µM, first compound 0.00949 µM
[16] = second compound 1 µM, first compound 0.03 µM
[17] = second compound 1 µM, first compound 0.0949 µM
[18] = second compound 1 µM, first compound 0.3 µM
[19] = second compound 3.16 µM, first compound 0.000949 µM
[20] = second compound 3.16 µM, first compound 0.003 µM
[21] = second compound 3.16 µM, first compound 0.00949 µM
[22] = second compound 3.16 µM, first compound 0.03 µM
[23] = second compound 3.16 µM, first compound 0.0949 µM
[24] = second compound 3.16 µM, first compound 0.3 µM
[25] = second compound 10 µM, first compound 0.000949 µM
[26] = second compound 10 µM, first compound 0.003 µM
[27] = second compound 10 µM, first compound 0.00949 µM
[28] = second compound 10 µM, first compound 0.03 µM
[29] = second compound 10 µM, first compound 0.0949 µM
[30] = second compound 10 µM, first compound 0.3 µM
[31] = second compound 0.1 µM, first compound 0.0316 µM
[32] = second compound 0.1 µM, first compound 0.1 µM
[33] = second compound 0.1 µM, first compound 0.316 µM
[34] = second compound 0.1 µM, first compound 1 µM
[35] = second compound 0.1 µM, first compound 3.16 µM
[36] = second compound 0.1 µM, first compound 10 µM
[37] = second compound 0.316 µM, first compound 0.0316 µM
[38] = second compound 0.316 µM, first compound 0.1 µM
[39] = second compound 0.316 µM, first compound 0.316 µM
[40] = second compound 0.316 µM, first compound 1 µM
[41] = second compound 0.316 µM, first compound 3.16 µM
[42] = second compound 0.316 µM, first compound 10 µM
[43] = second compound 1 µM, first compound 0.0316 µM
[44] = second compound 1 µM, first compound 0.1 µM
[45] = second compound 1 µM, first compound 0.316 µM
[46] = second compound 1 µM, first compound 1 µM
[47] = second compound 1 µM, first compound 3.16 µM
[48] = second compound 1 µM, first compound 10 µM
[49] = second compound 3.16 µM, first compound 0.0316 µM
[50] = second compound 3.16 µM, first compound 0.1 µM
[51] = second compound 3.16 µM, first compound 0.316 µM
[52] = second compound 3.16 µM, first compound 1 µM
[53] = second compound 3.16 µM, first compound 3.16 µM
[54] = second compound 3.16 µM, first compound 10 µM
[55] = second compound 10 µM, first compound 0.0316 µM
[56] = second compound 10 µM, first compound 0.1 µM
[57] = second compound 10 µM, first compound 0.316 µM
[58] = second compound 10 µM, first compound 1 µM
[59] = second compound 10 µM, first compound 3.16 µM
[60] = second compound 10 µM, first compound 10 µM

Nc1ccn(C2OC(CO)C(O)C2(F)F)c(=O)n1 (stereo not given) + NC1CCC(NC2CC2c2ccccc2)CC1
pIC50 (second compound 0.1 µM): > 9.02
pIC50 (second compound 0.316 µM): > 9.02
pIC50 (second compound 1 µM): > 9.02
pIC50 (second compound 3.16 µM): > 9.02
pIC50 (second compound 10 µM): > 9.02
viability, T/C [1]: 27.8%
viability, T/C [2]: 29%
viability, T/C [3]: 30.3%
viability, T/C [4]: 31.4%
viability, T/C [5]: 30.7%
viability, T/C [6]: 28.6%
viability, T/C [7]: 29.5%
viability, T/C [8]: 30.3%
viability, T/C [9]: 31%
viability, T/C [10]: 32.4%
viability, T/C [11]: 30.8%
viability, T/C [12]: 30.6%
viability, T/C [13]: 32.8%
viability, T/C [14]: 33.5%
viability, T/C [15]: 34.3%
viability, T/C [16]: 33.2%
viability, T/C [17]: 32.7%
viability, T/C [18]: 31.2%
viability, T/C [19]: 32.8%
viability, T/C [20]: 34.4%
viability, T/C [21]: 35.5%
viability, T/C [22]: 36.3%
viability, T/C [23]: 33.7%
viability, T/C [24]: 31.9%
viability, T/C [25]: 33.3%
viability, T/C [26]: 34.9%
viability, T/C [27]: 36.8%
viability, T/C [28]: 34.6%
viability, T/C [29]: 34.9%
viability, T/C [30]: 33.1%

COc1ccc([C@@H](O)c2cc(-c3ncnc4cc(N5CCOCC5)ccc34)c(F)cc2Cl)nn1 + NC1CCC(NC2CC2c2ccccc2)CC1
pIC50 (second compound 0.1 µM): 5.72
pIC50 (second compound 0.316 µM): 5.87
pIC50 (second compound 1 µM): 5.72
pIC50 (second compound 3.16 µM): 5.79
pIC50 (second compound 10 µM): 6.00
viability, T/C [31]: 88.3%
viability, T/C [32]: 91.5%
viability, T/C [33]: 79%
viability, T/C [34]: 56%
viability, T/C [35]: 46%
viability, T/C [36]: 26.1%
viability, T/C [37]: 99.3%
viability, T/C [38]: 93.1%
viability, T/C [39]: 69.6%
viability, T/C [40]: 54.5%
viability, T/C [41]: 40%
viability, T/C [42]: 26%
viability, T/C [43]: 88.2%
viability, T/C [44]: 80.2%
viability, T/C [45]: 66.4%
viability, T/C [46]: 60.9%
viability, T/C [47]: 44.2%
viability, T/C [48]: 28%
viability, T/C [49]: 93.3%
viability, T/C [50]: 83.2%
viability, T/C [51]: 69.3%
viability, T/C [52]: 57.5%
viability, T/C [53]: 40.5%
viability, T/C [54]: 26.1%
viability, T/C [55]: 82.5%
viability, T/C [56]: 83%
viability, T/C [57]: 63%
viability, T/C [58]: 50.8%
viability, T/C [59]: 35.8%
viability, T/C [60]: 25.6%

O=C(c1cc(Cc2n[nH]c(=O)c3ccccc23)ccc1F)N1CCN(C(=O)C2CC2)CC1 + NC1CCC(NC2CC2c2ccccc2)CC1
pIC50 (second compound 0.1 µM): < 5.00
pIC50 (second compound 0.316 µM): < 5.00
pIC50 (second compound 1 µM): < 5.00
pIC50 (second compound 3.16 µM): < 5.00
pIC50 (second compound 10 µM): < 5.00
viability, T/C [31]: 110%
viability, T/C [32]: 116%
viability, T/C [33]: 104%
viability, T/C [34]: 102%
viability, T/C [35]: 92.9%
viability, T/C [36]: 90.5%
viability, T/C [37]: 101%
viability, T/C [38]: 105%
viability, T/C [39]: 105%
viability, T/C [40]: 101%
viability, T/C [41]: 98.2%
viability, T/C [42]: 89.7%
viability, T/C [43]: 103%
viability, T/C [44]: 103%
viability, T/C [45]: 106%
viability, T/C [46]: 88%
viability, T/C [47]: 95.3%
viability, T/C [48]: 82%
viability, T/C [49]: 95.6%
viability, T/C [50]: 101%
viability, T/C [51]: 93%
viability, T/C [52]: 100%
viability, T/C [53]: 88.5%
viability, T/C [54]: 74.2%
viability, T/C [55]: 92.4%
viability, T/C [56]: 97%
viability, T/C [57]: 96.3%
viability, T/C [58]: 83.2%
viability, T/C [59]: 79%
viability, T/C [60]: 61.1%

CCc1c2c(nc3ccc(O)cc13)-c1cc3c(c(=O)n1C2)COC(=O)[C@]3(O)CC + NC1CC1c1ccc(-c2cccc(O)c2)cc1
pIC50 (second compound 0.1 µM): > 9.02
pIC50 (second compound 0.316 µM): > 9.02
pIC50 (second compound 1 µM): > 9.02
pIC50 (second compound 3.16 µM): > 9.02
pIC50 (second compound 10 µM): > 9.02
viability, T/C [1]: 33%
viability, T/C [2]: 17.4%
viability, T/C [3]: 7.17%
viability, T/C [4]: 2.96%
viability, T/C [5]: 0.9%
viability, T/C [6]: 0.46%
viability, T/C [7]: 31.7%
viability, T/C [8]: 18.4%
viability, T/C [9]: 7.68%
viability, T/C [10]: 2.91%
viability, T/C [11]: 0.78%
viability, T/C [12]: 0.44%
viability, T/C [13]: 31.3%
viability, T/C [14]: 18%
viability, T/C [15]: 7.01%
viability, T/C [16]: 3.01%
viability, T/C [17]: 0.61%
viability, T/C [18]: 0.46%
viability, T/C [19]: 32.2%
viability, T/C [20]: 18.7%
viability, T/C [21]: 8.72%
viability, T/C [22]: 4.14%
viability, T/C [23]: 0.87%
viability, T/C [24]: 0.58%
viability, T/C [25]: 34%
viability, T/C [26]: 19.9%
viability, T/C [27]: 8.18%
viability, T/C [28]: 4.37%
viability, T/C [29]: 0.68%
viability, T/C [30]: 0.41%
